Experimental data published in patent EP4667483A1, “HUMAN TRANSFERRIN RECEPTOR-BINDING PEPTIDE” (JCR Pharmaceuticals Co., Ltd., priority 2023, dated 2024).
Numbered stars: 1 amine (or outer) side, 2 acyl side, 3 side chain; on linkers, the order of the positions; unused ones are H or OH. Bridge positions count the residues as written; N and C are the ends. Square brackets hold non-standard residues; d marks the D form. Side chains are listed from the residue outwards. Peptide text beside a SMILES is read from it. * marks the point of attachment. Trp(1-CH2COOH) = N[C@@H](Cc1cn(CC(=O)O)c2ccccc12)C(=O)O; CH2CON(CH2CH2)2NCH2COOH = O=C(O)CN1CCN(C(=O)C*)CC1; Nle(6-morpholino) = N[C@@H](CCCCN1CCOCC1)C(=O)O; Phe(3-COOH) = N[C@@H](Cc1cccc(C(=O)O)c1)C(=O)O; Trp(7-aza) = N[C@@H](Cc1c[nH]c2ncccc12)C(=O)O; NH(CH2CH2O)8Me = COCCOCCOCCOCCOCCOCCOCCOCCN*; NMePhe(3-Cl) = CN[C@@H](Cc1cccc(Cl)c1)C(=O)O; Piperazinyl(4-CH2COOH) = O=C(O)CN1CCN(*)CC1; PEG8 = NCCOCCOCCOCCOCCOCCOCCOCCOCCC(=O)O; NMeY = CN[C@@H](Cc1ccc(O)cc1)C(=O)O; Nva(3-Et) = CCC(CC)[C@H](N)C(=O)O; 4Pal = N[C@@H](Cc1ccncc1)C(=O)O; PEG4 = NCCOCCOCCOCCOCCC(=O)O; Carboxymethyl = O=C(O)C*; CO = O=C([*:1])[*:2]

Key:
[1] = target: T1, human transferrin receptor (hTfR) (Homo sapiens, UniProt P02786); assay: SPR measurement under pH 7.4 conditions (Biacore T200, CM3 chip, hTfR captured by His Tag antibody); format: binding; conditions: read-out: hTfR SPR pH7.4 KD
T1 sequence (P02786 whole entry): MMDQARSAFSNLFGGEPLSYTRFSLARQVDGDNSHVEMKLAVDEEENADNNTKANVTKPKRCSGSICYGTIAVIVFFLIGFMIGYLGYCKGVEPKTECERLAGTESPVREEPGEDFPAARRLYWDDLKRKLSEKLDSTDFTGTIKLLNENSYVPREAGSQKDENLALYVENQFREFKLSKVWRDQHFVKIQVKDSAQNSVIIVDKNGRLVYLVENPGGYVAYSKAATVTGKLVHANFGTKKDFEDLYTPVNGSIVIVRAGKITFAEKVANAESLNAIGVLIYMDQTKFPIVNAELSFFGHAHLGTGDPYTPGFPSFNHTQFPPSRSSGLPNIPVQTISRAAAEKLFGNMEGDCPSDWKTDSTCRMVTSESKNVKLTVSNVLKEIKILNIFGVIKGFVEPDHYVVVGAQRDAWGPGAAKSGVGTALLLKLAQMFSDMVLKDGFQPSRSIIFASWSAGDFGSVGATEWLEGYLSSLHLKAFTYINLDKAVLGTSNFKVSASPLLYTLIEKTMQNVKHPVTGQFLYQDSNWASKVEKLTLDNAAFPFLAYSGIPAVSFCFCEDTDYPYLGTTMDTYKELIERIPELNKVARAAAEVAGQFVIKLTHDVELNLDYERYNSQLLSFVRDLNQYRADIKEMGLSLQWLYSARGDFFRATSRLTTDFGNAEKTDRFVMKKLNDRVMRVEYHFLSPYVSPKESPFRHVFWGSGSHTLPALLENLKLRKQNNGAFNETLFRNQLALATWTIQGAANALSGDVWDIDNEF

[2] = target: T1, human transferrin receptor (hTfR); assay: SPR measurement under pH 6.0 conditions (Biacore T200, NTA chip, immobilized hTfR); format: binding; conditions: read-out: hTfR SPR pH6.0 KD
[3] = SPR, pH 7.4, peptide with the linker named in the table
[4] = SPR, pH 6.0, peptide with the linker named in the table

Compound | Kd [1, 3] | Kd [2, 4] | Kd ([1]; pH 7.4, single-cycle kinetics) | Kd ([2]; pH 6.0, single-cycle kinetics)
CC[C@H](C)[C@@H]1NC(=O)[C@H](Cc2ccc(OC)cc2)NC(=O)[C@H](Cc2ccc(O)cc2)NC(=O)[C@H](CC(N)=O)NC(=O)[C@H](Cc2c[nH]c3ncccc23)NC(=O)[C@H](C(C)C)NC(=O)[C@H](Cc2cccc(Cl)c2)N(C)C(=O)[C@H](C(C)C)NC(=O)[C@H](C)NC(=O)CSC[C@@H](C(=O)NCCOCCOCCOCCOCCC(N)=O)NC(=O)[C@H](Cc2ccc(O)cc2)N(C)C(=O)[C@H](CCC(=O)NCCOCCOCCOCCOCCOCCOCCOCCOCCC(=O)O)NC(=O)[C@H](CCCNC(=N)N)NC(=O)[C@H](CCC(=O)NCCOCCOCCOCCOCCOCCOCCOCCOCCC(=O)O)NC(=O)[C@H]([C@@H](C)CC)NC1=O [compound 141] ({CH2CO}-AV[NMePhe(3-Cl)]V[Trp(7-aza)]NYY(Me)IIE(PEG8)RE(PEG8)[NMeY]C[PEG4]-NH2; thioether N-15) | 142 nM | 212 nM |  | 
CC[C@H](C)[C@@H]1NC(=O)[C@H](Cc2ccc(OC)cc2)NC(=O)[C@H](Cc2ccc(N)nc2)NC(=O)[C@H](CC(N)=O)NC(=O)[C@H](Cc2c[nH]c3ncccc23)NC(=O)[C@H](C(C)C)NC(=O)[C@H](Cc2cccc(Cl)c2)N(C)C(=O)[C@H](C(C)C)NC(=O)[C@H](C)NC(=O)CSC[C@@H](C(=O)NCCOCCOCCOCCOCCC(N)=O)NC(=O)[C@H](Cc2ccc(O)cc2)N(C)C(=O)[C@H](Cc2ccncc2)NC(=O)[C@H](CCCNC(=N)N)NC(=O)[C@H](CCCNC(=N)N)NC(=O)[C@H]([C@@H](C)CC)NC1=O [compound 1] |  |  | 1.56 nM | 18.2 nM
CCC(CC)[C@@H]1NC(=O)[C@H](Cc2ccc(OCC(=O)O)cc2)NC(=O)[C@H](Cc2ccc(O)cc2)NC(=O)[C@H](CC(N)=O)NC(=O)[C@H](Cc2cn(CC(=O)O)c3ccccc23)NC(=O)[C@H](C(C)C)NC(=O)[C@H](Cc2cccc(Cl)c2)N(C)C(=O)[C@H](C(C)C)NC(=O)[C@H](C)NC(=O)CSC[C@@H](C(=O)NCCOCCOCCOCCOCCC(N)=O)NC(=O)[C@H](Cc2ccc(O)cc2)N(C)C(=O)[C@H](Cc2cccc(C(=O)O)c2)NC(=O)[C@H](Cc2c[nH]cn2)NC(=O)[C@H](CCC(N)=O)NC(=O)[C@H]([C@@H](C)CC)NC1=O [compound 98] ({CH2CO}-AV[NMePhe(3-Cl)]V[Trp(1-CH2COOH)]NYY(Carboxymethyl)[Nva(3-Et)]IQH[Phe(3-COOH)][NMeY]C[PEG4]-NH2; thioether N-15) | 20.6 nM | 145 nM |  | 

Further lines, results first:

Kd [1, 3] | Kd [2, 4] | Kd ([1]; pH 7.4, single-cycle kinetics) | Kd ([2]; pH 6.0, single-cycle kinetics) | Compound
 |  | 5.11 nM | 34.4 nM | CC[C@H](C)[C@@H]1NC(=O)[C@H](Cc2ccc(OCC(=O)N3CCN(CC(=O)O)CC3)cc2)NC(=O)[C@H](Cc2ccc(O)cc2)NC(=O)[C@H](CC(N)=O)NC(=O)[C@H](Cc2c[nH]c3ncccc23)NC(=O)[C@H](C(C)C)NC(=O)[C@H](Cc2cccc(Cl)c2)N(C)C(=O)[C@H](C(C)C)NC(=O)[C@H](C)NC(=O)CSC[C@@H](C(=O)NCCOCCOCCOCCOCCC(N)=O)NC(=O)[C@H](Cc2ccc(O)cc2)N(C)C(=O)[C@H](Cc2cccc(C(=O)O)c2)NC(=O)[C@H](CCCNC(=N)N)NC(=O)[C@H](CCC(=O)NCCOCCOCCOCCOCCOCCOCCOCCOC)NC(=O)[C@H]([C@@H](C)CC)NC1=O [compound 42]
 |  | 8.5 nM | 22.1 nM | CC[C@H](C)[C@@H]1NC(=O)[C@H](Cc2ccc(OCC(=O)N3CCN(CC(=O)O)CC3)cc2)NC(=O)[C@H](Cc2ccc(O)cc2)NC(=O)[C@H](CC(N)=O)NC(=O)[C@H](Cc2cn(CC(=O)O)c3ccccc23)NC(=O)[C@H](C(C)C)NC(=O)[C@H](Cc2cccc(Cl)c2)N(C)C(=O)[C@H](C(C)C)NC(=O)[C@H](C)NC(=O)CSC[C@@H](C(=O)NCCOCCOCCOCCOCCC(N)=O)NC(=O)[C@H](Cc2ccc(O)cc2)N(C)C(=O)[C@H](Cc2ccncc2)NC(=O)[C@H](CCCCN2CCOCC2)NC(=O)[C@H](CCCCNC(=O)N2CCN(CC(=O)O)CC2)NC(=O)[C@H]([C@@H](C)CC)NC1=O [compound 33] ({CH2CO}-AV[NMePhe(3-Cl)]V[Trp(1-CH2COOH)]NYY(CH2CON(CH2CH2)2NCH2COOH)IIK([CO-Piperazinyl(4-CH2COOH)])[Nle(6-morpholino)][4Pal][NMeY]C[PEG4]-NH2; thioether N-15)
 |  | 2.43 nM | 17.1 nM | CC[C@H](C)[C@@H]1NC(=O)[C@H](Cc2ccc(OCC(=O)N3CCN(CC(=O)O)CC3)cc2)NC(=O)[C@H](Cc2ccc(O)cc2)NC(=O)[C@H](CC(N)=O)NC(=O)[C@H](Cc2c[nH]c3ccccc23)NC(=O)[C@H](C(C)C)NC(=O)[C@H](Cc2cccc(Cl)c2)N(C)C(=O)[C@H](C(C)C)NC(=O)[C@H](C)NC(=O)CSC[C@@H](C(=O)NCCOCCOCCOCCOCCC(N)=O)NC(=O)[C@H](Cc2ccc(O)cc2)N(C)C(=O)[C@H](Cc2cccc(C(=O)O)c2)NC(=O)[C@H](CCCCN2CCOCC2)NC(=O)[C@H](CCC(=O)NCCOCCOCCOCCOCCOCCOCCOCCOC)NC(=O)[C@H]([C@@H](C)CC)NC1=O [compound 31] ({CH2CO}-AV[NMePhe(3-Cl)]VWNYY(CH2CON(CH2CH2)2NCH2COOH)IIE(NH(CH2CH2O)8Me)[Nle(6-morpholino)][Phe(3-COOH)][NMeY]C[PEG4]-NH2; thioether N-15)
